Structures are written as SMILES. Bounds are passed on as bounds.

Consider 9 compounds from patent USRE47689E1, “Compounds for treating spinal muscular atrophy” (PTC Therapeutics, Inc., priority 2011, dated 2019).

Series [1] has as its system SMN2 minigene (full length SMN2 minigene mRNA containing SMN2 exon 7). Put plainly: SMN2 minigene mRNA splicing RT-qPCR assay in cultured cells. The following applies: Homo sapiens, HEK293-H; HEK293H cells stably transfected with SMN2-A minigene; 24 hours; 7-point concentration curve; 1.5-fold relative to vehicle-treated cells; read-out: EC1.5x for production of full length SMN2 mRNA. The series is classed as cell-based, human. In a few lines:
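Lysates → one-step RT-qPCR, minigene-specific primers (0.4 μM final) + GAPDH multiplex, 40 cycles. FL/GAPDH vs DMSO; EC1.5x, star-binned.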

The test system of series [2] is Smn protein. Put plainly: Smn protein assay in cultured cells (SMN HTRF). The series is classed as cell-based, human. The following applies: 48 hours; for maximum fold (Fold) increase of Smn protein: SMA patient fibroblast cells, 7-point concentration data, fold increase relative to vehicle control (SMN HTRF); for EC1.5x (concentration giving 1.5-fold Smn protein increase): SMA Type 1 patient fibroblast cells (GM03813), 7-point concentration curve, SMN HTRF, concentration producing 1.5 times Smn protein vs DMSO vehicle control, read-out: EC1.5x for Smn protein expression. In a few lines:
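Smn in SMA fibroblast lysates, measured by anti-SMN HTRF after 48 h compound exposure; EC1.5x from fold change over vehicle.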
For orientation: In TR-FRET formats the signal depends on donor and acceptor labels being close together.

For orientation: melting point means the temperature, or range, at which the solid turns liquid. `Cc1cn2cc(-c3cc4ccc(N[C@@H]5CCN(C(C)C)C5)cc4oc3=O)nc2c(C)n1` [Compound 733, 3-(6,8-dimethylimidazo[1,2-a]pyrazin-2-yl)-7-{[(3R)-1-(propan-2-yl)pyrrolidin-3-yl]amino}-2H-chromen-2-one] came in with a melting point of 200 to 207 °C. The EC (1.5-fold) in series [1] is < 0.1 µM. Besides, in series [2], the “maximum fold (Fold) increase of Smn protein” value (shortened to “maximum fold (Fold) increase”) is “*** (fold increase between >1.35 and ≤1.5)”.

Take `CCN1CCN(c2ccc3cc(-c4cn5cc(Cl)nc(C)c5n4)c(=O)oc3c2)CC1` [Compound 766, 3-(6-chloro-8-methylimidazo[1,2-a]pyrazin-2-yl)-7-(4-ethylpiperazin-1-yl)-2H-chromen-2-one]: the melting point fell in the range of 228 to 230 °C. Moreover, the EC (1.5-fold) in series [1] is < 0.1 µM. Moreover, in series [2], the “maximum fold (Fold) increase” value is “*** (fold increase between >1.35 and ≤1.5)”.

The compound `Cc1cn2cc(-c3cc4ccc(CCCNCc5ccncc5)cc4oc3=O)nc2c(C)n1` [Compound 936, 3-(6,8-dimethylimidazo[1,2-a]pyrazin-2-yl)-7-{3-[(pyridin-4-ylmethyl)amino]propyl}-2H-chromen-2-one] came in with a melting point of 155 to 159 °C. For the same compound, in series [1], the EC (1.5-fold) was < 0.1 µM. In series [2], the EC1.5x (concentration giving 1.5-fold Smn protein increase) is < 300 nM and the “maximum fold (Fold) increase” value is recorded as “***** (fold increase >1.65)”.

`Cc1cccc2[nH]c(-c3cc4ccc(N5CCNCC5)cc4oc3=O)nc12` [Compound 394, 3-(4-methyl-1H-benzimidazol-2-yl)-7-(piperazin-1-yl)-2H-chromen-2-one]: the melting point fell in the range of 206 to 211 °C. In addition, the EC (1.5-fold) in series [1] lay in the range of 3 to 30 µM. For the same compound, the “maximum fold (Fold) increase” value in series [2] was “* (maximum fold increase of ≤1.2)”.

`Cc1cn2cc(-c3cc4ccc(N5CCN(CCO)CC5)cc4oc3=O)cc2cn1` [Compound 684, 7-[4-(2-hydroxyethyl)piperazin-1-yl]-3-(3-methylpyrrolo[1,2-a]pyrazin-7-yl)-2H-chromen-2-one] yielded a melting point of 212 to 215 °C. The EC (1.5-fold) in series [1] was < 0.1 µM. In series [2], the EC1.5x (concentration giving 1.5-fold Smn protein increase) was < 300 nM; the “maximum fold (Fold) increase” value is “**** (fold increase between >1.5 and ≤1.65)”.

Regarding `CCN1CCN(c2ccc3cc(-c4cc5cc(C)nc(C)c5o4)c(=O)oc3c2)CC1` [Compound 788, 3-(5,7-dimethylfuro[2,3-c]pyridin-2-yl)-7-(4-ethylpiperazin-1-yl)-2H-chromen-2-one], the melting point lay within 196 to 198 °C. Also, the EC (1.5-fold) in series [1] was < 0.1 µM. In series [2], the EC1.5x (concentration giving 1.5-fold Smn protein increase) is < 300 nM; the “maximum fold (Fold) increase” value was “**** (fold increase between >1.5 and ≤1.65)”.

Compound `O=c1oc2cc(N3CCNCC3)ccc2cc1-c1cn2ccncc2n1` [Cpd 456, 3-(imidazo[1,2-a]pyrazin-2-yl)-7-(piperazin-1-yl)-2H-chromen-2-one] displayed a melting point of 258 to 260 °C. For the same compound, in series [1], the EC (1.5-fold) is < 0.1 µM. Moreover, in series [2], the EC1.5x (concentration giving 1.5-fold Smn protein increase) was 1000 to 3000 nM; the “maximum fold (Fold) increase” value was “**** (fold increase between >1.5 and ≤1.65)”.

Regarding `C[C@@H]1CN(c2ccc3cc(-c4cn5cccc(Cl)c5n4)c(=O)oc3c2)C[C@H](C)N1C` [Compound 137, 3-(8-chloroimidazo[1,2-a]pyridin-2-yl)-7-[(3R,5S)-3,4,5-trimethylpiperazin-1-yl]-2H-chromen-2-one], the melting point lay within 244 to 247 °C. In addition, the EC (1.5-fold) in series [1] was in the range of 1 to 3 µM. Further, the “maximum fold (Fold) increase” value in series [2] was “*** (fold increase between >1.35 and ≤1.5)”.

With `COc1cccc(-c2cc3ccc(N4CCCN(C)CC4)cc3oc2=O)n1` [Compound 359, 3-(6-methoxypyridin-2-yl)-7-(4-methyl-1,4-diazepan-1-yl)-2H-chromen-2-one], the melting point lay within 155 to 158 °C. Further, in series [1], the EC (1.5-fold) fell in the range of 3 to 30 µM. In addition, the “maximum fold (Fold) increase” value in series [2] is “* (maximum fold increase of ≤1.2)”.
